Measurements as given in US9611267B2, “Substituted tricyclic compounds as FGFR inhibitors” (Incyte Corporation, priority 2012, dated 2017).

Legend:
Assay type in all cases: biochemical
[1] = target: FGFR1 (Homo sapiens (Human), UniProt P11362); experiment: FGFR enzymatic assay (FRET peptide phosphorylation), FGFR1; details: FGFR1 enzyme 0.02 nM, ATP 210 μM
How it was run: (§1)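 IC50 values were obtained from variable-slope sigmoidal dose-response fitting of a FRET read-out of peptide phosphorylation. The buffer, described for FGFR3, was 50 mM HEPES pH 7.5 with MgCl2, EGTA, Tween-20 and DTT.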

[2] = target: FGFR2 (Homo sapiens (Human), UniProt P21802); experiment: FGFR enzymatic assay (FRET peptide phosphorylation), FGFR2; details: FGFR2 enzyme 0.01 nM, ATP 100 μM
How it was run: as §1

[3] = target: FGFR3 (Homo sapiens (Human), UniProt P22607); experiment: FGFR enzymatic assay (FRET peptide phosphorylation), FGFR3; details: FGFR3 enzyme (Millipore), ATP 140 μM
How it was run: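 After 5-10 min pre-incubation of FGFR3 with serially diluted compound in pH 7.5 HEPES/MgCl2/EGTA/DTT buffer, the reaction proceeded 1 hr at 25° C. Phosphorylated peptide was detected by FRET, and IC50 was fitted with a variable-slope sigmoid.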

FGFR2, sequence (P21802 22-821): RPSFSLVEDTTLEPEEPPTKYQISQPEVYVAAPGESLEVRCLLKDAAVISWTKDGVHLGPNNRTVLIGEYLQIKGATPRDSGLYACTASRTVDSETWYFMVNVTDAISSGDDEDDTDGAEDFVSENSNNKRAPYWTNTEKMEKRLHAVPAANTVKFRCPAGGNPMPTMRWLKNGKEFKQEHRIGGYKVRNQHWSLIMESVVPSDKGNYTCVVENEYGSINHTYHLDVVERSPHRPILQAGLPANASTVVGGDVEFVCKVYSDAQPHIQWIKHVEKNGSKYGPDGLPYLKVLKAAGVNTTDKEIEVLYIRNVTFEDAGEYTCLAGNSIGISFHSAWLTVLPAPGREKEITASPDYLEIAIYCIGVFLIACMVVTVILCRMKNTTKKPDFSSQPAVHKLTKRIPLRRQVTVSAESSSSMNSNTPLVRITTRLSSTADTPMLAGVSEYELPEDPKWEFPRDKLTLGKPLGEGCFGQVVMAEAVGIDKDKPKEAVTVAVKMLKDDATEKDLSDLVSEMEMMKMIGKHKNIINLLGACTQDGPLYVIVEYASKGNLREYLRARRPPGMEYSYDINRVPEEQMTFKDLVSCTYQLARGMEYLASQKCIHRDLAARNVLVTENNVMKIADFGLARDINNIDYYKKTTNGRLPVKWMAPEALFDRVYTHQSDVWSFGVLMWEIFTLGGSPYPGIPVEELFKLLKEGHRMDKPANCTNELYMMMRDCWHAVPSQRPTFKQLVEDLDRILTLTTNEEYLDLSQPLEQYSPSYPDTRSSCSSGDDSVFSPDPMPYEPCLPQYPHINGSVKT
FGFR3, sequence (P22607 23-806): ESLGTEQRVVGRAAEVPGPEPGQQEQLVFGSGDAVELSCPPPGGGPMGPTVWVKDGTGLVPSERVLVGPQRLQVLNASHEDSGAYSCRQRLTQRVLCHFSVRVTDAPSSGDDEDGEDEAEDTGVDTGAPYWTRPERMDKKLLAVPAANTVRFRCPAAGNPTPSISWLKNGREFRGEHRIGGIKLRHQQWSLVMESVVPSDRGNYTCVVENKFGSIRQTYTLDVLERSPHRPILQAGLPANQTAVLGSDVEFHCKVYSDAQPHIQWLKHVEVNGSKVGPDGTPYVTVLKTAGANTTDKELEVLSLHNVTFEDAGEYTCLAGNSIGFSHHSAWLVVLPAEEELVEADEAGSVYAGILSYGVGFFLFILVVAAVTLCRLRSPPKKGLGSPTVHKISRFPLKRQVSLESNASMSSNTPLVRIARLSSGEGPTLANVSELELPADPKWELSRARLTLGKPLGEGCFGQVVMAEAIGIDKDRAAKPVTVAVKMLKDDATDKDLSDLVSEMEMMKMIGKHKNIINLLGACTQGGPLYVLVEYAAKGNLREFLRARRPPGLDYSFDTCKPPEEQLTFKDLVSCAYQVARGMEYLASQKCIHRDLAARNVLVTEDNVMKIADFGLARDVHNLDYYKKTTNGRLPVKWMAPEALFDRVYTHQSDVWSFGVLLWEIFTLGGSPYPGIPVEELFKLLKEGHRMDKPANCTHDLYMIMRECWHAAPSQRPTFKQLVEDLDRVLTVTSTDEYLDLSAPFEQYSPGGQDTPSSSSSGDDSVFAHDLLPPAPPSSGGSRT
FGFR1, sequence (P11362 22-822): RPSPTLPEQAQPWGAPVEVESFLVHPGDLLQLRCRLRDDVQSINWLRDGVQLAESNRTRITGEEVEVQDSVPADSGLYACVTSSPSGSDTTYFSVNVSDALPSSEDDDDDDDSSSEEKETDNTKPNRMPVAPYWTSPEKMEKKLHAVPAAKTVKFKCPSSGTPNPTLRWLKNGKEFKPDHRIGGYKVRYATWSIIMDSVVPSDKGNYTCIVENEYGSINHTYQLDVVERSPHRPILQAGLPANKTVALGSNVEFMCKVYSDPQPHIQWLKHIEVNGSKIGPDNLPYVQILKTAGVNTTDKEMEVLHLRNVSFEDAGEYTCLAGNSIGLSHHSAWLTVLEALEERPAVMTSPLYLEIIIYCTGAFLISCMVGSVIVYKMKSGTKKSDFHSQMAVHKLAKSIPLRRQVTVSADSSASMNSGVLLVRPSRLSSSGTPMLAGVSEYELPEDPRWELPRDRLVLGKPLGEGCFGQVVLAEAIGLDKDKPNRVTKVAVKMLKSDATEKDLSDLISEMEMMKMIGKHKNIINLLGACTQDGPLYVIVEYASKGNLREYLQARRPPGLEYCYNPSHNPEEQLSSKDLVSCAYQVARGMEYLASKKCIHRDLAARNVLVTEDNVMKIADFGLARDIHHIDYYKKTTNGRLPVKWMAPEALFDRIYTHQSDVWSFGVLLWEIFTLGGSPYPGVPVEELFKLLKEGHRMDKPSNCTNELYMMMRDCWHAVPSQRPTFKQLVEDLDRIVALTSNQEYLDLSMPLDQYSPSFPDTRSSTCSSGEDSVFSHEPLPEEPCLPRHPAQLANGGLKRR

Row | SMILES | IC50 [1] [nM] | IC50 [2] [nM] | IC50 [3] [nM]
1 | COc1cc(OC)c(F)c(N2Cc3cnc4[nH]c(CN5CCN(C)CC5)cc4c3N(c3cccc(F)c3)C2=O)c1F [Example 213, 3-(2,6-difluoro-3,5-dimethoxyphenyl)-1-(3-fluorophenyl)-8-[(4-methylpiperazin-1-yl)methyl]-1,3,4,7-tetrahydro-2H-pyrrolo[3′,2′:5,6]pyrido[4,3-d]pyrimidin-2-one] | < 100 | < 100 | < 100
2 | COc1cc(OC)c(F)c(N2Cc3cnc4[nH]nc(-c5cnn(C)c5)c4c3N(C)C2=O)c1F [Example 215, 3-(2,6-difluoro-3,5-dimethoxyphenyl)-1-methyl-9-(1-methyl-1H-pyrazol-4-yl)-1,3,4,7-tetrahydro-2H-pyrazolo[4′,3′:5,6]pyrido[4,3-d]pyrimidin-2-one] | < 100 | < 100 | < 100
3 | COc1cc(OC)c(F)c(N2Cc3cnc4[nH]ncc4c3N(Cc3cccc(F)n3)C2=O)c1F [Example 216, 3-(2,6-difluoro-3,5-dimethoxyphenyl)-1-[(6-fluoropyridin-2-yl)methyl]-1,3,4,7-tetrahydro-2H-pyrazolo[4′,3′:5,6]pyrido[4,3-d]pyrimidin-2-one] | < 100 | < 100 | < 100
4 | COc1cc(OC)c(F)c(N2Cc3cnc4[nH]ncc4c3N(Cc3cccc(C)n3)C2=O)c1F [Example 217, 3-(2,6-difluoro-3,5-dimethoxyphenyl)-1-[(6-methylpyridin-2-yl)methyl]-1,3,4,7-tetrahydro-2H-pyrazolo[4′,3′:5,6]pyrido[4,3-d]pyrimidin-2-one] | < 100 | < 100 | < 100
5 | COc1cc(OC)c(F)c(N2Cc3cnc4[nH]ncc4c3N(c3ncccc3F)C2=O)c1F [Example 218, 3-(2,6-Difluoro-3,5-dimethoxyphenyl)-1-(3-fluoropyridin-2-yl)-1,3,4,7-tetrahydro-2H-pyrazolo[4′,3′:5,6]pyrido[4,3-d]pyrimidin-2-one] | < 100 | < 100 | < 100
6 | CCN1C(=O)N(c2c(F)c(OC)cc(OC)c2F)Cc2cnc3[nH]c(Cn4ccccc4=O)cc3c21 [Example 219, 3-(2,6-difluoro-3,5-dimethoxyphenyl)-1-ethyl-8-[(2-oxopyridin-1(2H)-yl)methyl]-1,3,4,7-tetrahydro-2H-pyrrolo[3′,2′:5,6]pyrido[4,3-d]pyrimidin-2-one] | < 100 | < 100 | < 100
7 | CCN1C(=O)N(c2c(F)c(OC)cc(OC)c2F)Cc2cnc3[nH]c(COc4cccnc4)cc3c21 [Example 220, 3-(2,6-difluoro-3,5-dimethoxyphenyl)-1-ethyl-8-[(pyridin-3-yloxy)methyl]-1,3,4,7-tetrahydro-2H-pyrrolo[3′,2′:5,6]pyrido[4,3-d]pyrimidin-2-one] | < 100 | < 100 | < 100
8 | COc1cc(OC)c(F)c(N2Cc3cnc4[nH]c(CN5CCOCC5)cc4c3N(CCO)C2=O)c1F [Example 221, 3-(2,6-difluoro-3,5-dimethoxyphenyl)-1-(2-hydroxyethyl)-8-(morpholin-4-ylmethyl)-1,3,4,7-tetrahydro-2H-pyrrolo[3′,2′:5,6]pyrido[4,3-d]pyrimidin-2-one] | < 100 | < 100 | < 100
9 | COc1cc(OC)c(F)c(N2Cc3cnc4[nH]c(CCN5CCOCC5)cc4c3N(c3cccc(F)c3F)C2=O)c1F [Example 222, 3-(2,6-difluoro-3,5-dimethoxyphenyl)-1-(2,3-difluorophenyl)-8-(2-morpholin-4-ylethyl)-1,3,4,7-tetrahydro-2H-pyrrolo[3′,2′:5,6]pyrido[4,3-d]pyrimidin-2-one] | < 100 | < 100 | < 100
10 | COc1cc(OC)c(F)c(N2Cc3cnc4[nH]c(CCN5CCN(C)CC5)cc4c3N(c3cccc(F)c3F)C2=O)c1F [Example 223, 3-(2,6-difluoro-3,5-dimethoxyphenyl)-1-(2,3-difluorophenyl)-8-[2-(4-methylpiperazin-1-yl)ethyl]-1,3,4,7-tetrahydro-2H-pyrrolo[3′,2′:5,6]pyrido[4,3-d]pyrimidin-2-one] | < 100 | < 100 | < 100
11 | CCN1CCN(CCc2cc3c4c(cnc3[nH]2)CN(c2c(F)c(OC)cc(OC)c2F)C(=O)N4c2cccc(F)c2F)CC1 [Example 224, 3-(2,6-difluoro-3,5-dimethoxyphenyl)-1-(2,3-difluorophenyl)-8-[2-(4-ethylpiperazin-1-yl)ethyl]-1,3,4,7-tetrahydro-2H-pyrrolo[3′,2′:5,6]pyrido[4,3-d]pyrimidin-2-one] | < 100 | < 100 | < 100

Other lines, results leading:

Row | IC50 [1] [nM] | IC50 [2] [nM] | IC50 [3] [nM] | SMILES
12 | < 100 | < 100 | < 100 | COc1cc(OC)c(F)c(N2Cc3cnc4[nH]c(CCN5CCOCC5)cc4c3N(c3ccc(F)cc3)C2=O)c1F [Example 225, 3-(2,6-difluoro-3,5-dimethoxyphenyl)-1-(4-fluorophenyl)-8-(2-morpholin-4-ylethyl)-1,3,4,7-tetrahydro-2H-pyrrolo[3′,2′:5,6]pyrido[4,3-d]pyrimidin-2-one]
13 | < 100 | < 100 | < 100 | COc1cc(OC)c(F)c(N2Cc3cnc4[nH]c(CCN5CCN(C)CC5)cc4c3N(c3ccc(F)cc3)C2=O)c1F [Example 226, 3-(2,6-difluoro-3,5-dimethoxyphenyl)-1-(4-fluorophenyl)-8-[2-(4-methylpiperazin-1-yl)ethyl]-1,3,4,7-tetrahydro-2H-pyrrolo[3′,2′:5,6]pyrido[4,3-d]pyrimidin-2-one]
14 | < 100 | < 100 | < 100 | COc1cc(OC)c(F)c(N2Cc3cnc4[nH]c(CCN5CCOCC5)cc4c3N(c3cccc(F)c3)C2=O)c1F [Example 227, 3-(2,6-difluoro-3,5-dimethoxyphenyl)-1-(3-fluorophenyl)-8-(2-morpholin-4-ylethyl)-1,3,4,7-tetrahydro-2H-pyrrolo[3′,2′:5,6]pyrido[4,3-d]pyrimidin-2-one]
15 | < 100 | < 100 | < 100 | COc1cc(OC)c(F)c(N2Cc3cnc4[nH]c(CCN5CCN(C)CC5)cc4c3N(c3cccc(F)c3)C2=O)c1F [Example 228, 3-(2,6-difluoro-3,5-dimethoxyphenyl)-1-(3-fluorophenyl)-8-[2-(4-methylpiperazin-1-yl)ethyl]-1,3,4,7-tetrahydro-2H-pyrrolo[3′,2′:5,6]pyrido[4,3-d]pyrimidin-2-one]
16 | < 100 | < 100 | < 100 | CCN1CCN(CCc2cc3c4c(cnc3[nH]2)CN(c2c(F)c(OC)cc(OC)c2F)C(=O)N4c2cccc(F)c2)CC1 [Example 229, 3-(2,6-difluoro-3,5-dimethoxyphenyl)-1-(3-fluorophenyl)-8-[2-(4-ethylpiperazin-1-yl)ethyl]-1,3,4,7-tetrahydro-2H-pyrrolo[3′,2′:5,6]pyrido[4,3-d]pyrimidin-2-one]
17 | < 100 | < 100 | < 100 | CCN1C(=O)N(c2c(F)c(OC)cc(OC)c2F)Cc2cnc3[nH]c(CCN4CC(C#N)C4)cc3c21 [Example 230, 1-{2-[3-(2,6-difluoro-3,5-dimethoxyphenyl)-1-ethyl-2-oxo-2,3,4,7-tetrahydro-1H-pyrrolo[3′,2′:5,6]pyrido[4,3-d]pyrimidin-8-yl]ethyl}azetidine-3-carbonitrile]
18 | < 100 | < 100 | < 100 | CCN1C(=O)N(c2c(F)c(OC)cc(OC)c2F)Cc2cnc3[nH]c(CCN4CC(F)C4)cc3c21 [Example 231, 3-(2,6-difluoro-3,5-dimethoxyphenyl)-1-ethyl-8-[2-(3-fluoroazetidin-1-yl)ethyl]-1,3,4,7-tetrahydro-2H-pyrrolo[3′,2′:5,6]pyrido[4,3-d]pyrimidin-2-one]
19 | < 100 | < 100 | < 100 | COc1cc(OC)c(F)c(N2Cc3cnc4[nH]c(CN5CCOCC5)cc4c3N(CCF)C2=O)c1F [Example 232, 3-(2,6-difluoro-3,5-dimethoxyphenyl)-1-(2-fluoroethyl)-8-(morpholin-4-ylmethyl)-1,3,4,7-tetrahydro-2H-pyrrolo[3′,2′:5,6]pyrido[4,3-d]pyrimidin-2-one]
20 | < 100 | < 100 | < 100 | COc1cc(OC)c(F)c(N2Cc3cnc4[nH]c(CN5CCN(C)CC5)cc4c3N(CCF)C2=O)c1F [Example 233, 3-(2,6-difluoro-3,5-dimethoxyphenyl)-1-(2-fluoroethyl)-8-[(4-methylpiperazin-1-yl)methyl]-1,3,4,7-tetrahydro-2H-pyrrolo[3′,2′:5,6]pyrido[4,3-d]pyrimidin-2-one]
